# Tests used:
# human MOR [1] = target: T1, human MOR (Homo sapiens, UniProt P35372); assay: Radioligand MOR binding assay ([3H]DAMGO competition, CHO-hMOR membranes); settings: for inhibition at 10 µM: read-out: inhibition of [3H]DAMGO binding to the MOR
# T1 construct: expressed in transfected cells; host or cells: CHO (Chinese hamster ovary) cells stably expressing human MOR; gift from Dr. Lawrence Toll, SRI International
# human MOR [2] = target: T1, human MOR; assay: cAMP accumulation assay (GloSensor) in CHO-hMOR-p22F cells; format: cell-based; settings: for inhibition of the forskolin-stimulated cAMP production: CHO-hMOR-p22F cells, agonist mode
# Procedure: Inhibition of the forskolin-stimulated intracellular cAMP accumulation in CHO cells co-expressing the hMOR and the cAMP biosensor GloSensor-22F (CHO-hMOR-p22F cells) was performed using the Glo-Sensor^TM cAMP assay (Promega), according to the manufacturer’s instructions. Cells were seeded in growth medium into 384-well plates at a density of 5,000 cells in 30 μL per well and incubated overnight. On the day of assay, culture media was removed, and cells were pre-equilibrated for 90 min with 4% v/v of the GloSensor cAMP reagent in reaction medium (20 mM HEPES, 1 × HBSS, pH 7.4) at 37 °C and 5% CO2. […] Forskolin (10 μM) was added to each well, and luminescence was measured after 20 min. All experiments were performed in triplicate and repeated at least three times.
# human MOR [3] = target: T1, human MOR; assay: [35S]GTPγS binding assay in CHO-hMOR cell membranes; format: biochemical; settings: for stimulation of [35S]GTPγS binding: CHO-hMOR membranes, agonist mode
# Procedure: Determination of [^35S]GTPγS binding to CHO-hMOR cell membranes were performed as described previously. Cell membranes (5–10 μg protein), prepared as described for the radioligand MOR binding assay, were incubated in the absence or in the presence of test compound in the assay buffer (20 mM HEPES, 100 mM NaCl, 10 mM MgCl2, pH 7.4) containing [^35S]GTPγS (0.05 nM) and GDP (10 nM) in a total volume of 1.0 mL for 60 min at 25 °C. Nonspecific binding was determined using 10 μM GTPγS, and the basal binding was determined in the absence of test compound. Samples were filtered over glass fiber filters and counted as described for the radioligand binding assays. […] The antagonist equilibrium dissociation constant Ke for 4 was calculated using the equation Ke = [a]/(DR − 1), where “a” is the concentration of antagonist. All experiments were performed in duplicate and repeated at least three times.
# [4] = system: morphine-induced antinociception in mice; assay: Acetic acid-induced writhing test, antagonism of morphine-induced antinociception; format: in vivo, mouse; settings: s.c.
# [5] = system: morphine-induced antinociception in mice; assay: Tail-flick test, antagonism of morphine-induced antinociception; format: in vivo, mouse
# μ1 receptors = target: μ1 receptors; parameters: method as in PMID 8069669; settings: lowering radioligand binding; cited from earlier work
# mouse tail-flick test = system: mouse tail-flick test; parameters: method as in PMID 8069669; settings: cited from earlier work
# μ2 receptors = target: μ2 receptors; parameters: method as in PMID 8069669; settings: lowering radioligand binding; cited from earlier work
# MOR = settings: concentration of 100 μM; cited from earlier work
# [6] = system: μ3 opioid receptor subtype; parameters: method as in PMID 15580165; settings: human monocytes; cited from earlier work
# T1 sequence (P35372 whole entry): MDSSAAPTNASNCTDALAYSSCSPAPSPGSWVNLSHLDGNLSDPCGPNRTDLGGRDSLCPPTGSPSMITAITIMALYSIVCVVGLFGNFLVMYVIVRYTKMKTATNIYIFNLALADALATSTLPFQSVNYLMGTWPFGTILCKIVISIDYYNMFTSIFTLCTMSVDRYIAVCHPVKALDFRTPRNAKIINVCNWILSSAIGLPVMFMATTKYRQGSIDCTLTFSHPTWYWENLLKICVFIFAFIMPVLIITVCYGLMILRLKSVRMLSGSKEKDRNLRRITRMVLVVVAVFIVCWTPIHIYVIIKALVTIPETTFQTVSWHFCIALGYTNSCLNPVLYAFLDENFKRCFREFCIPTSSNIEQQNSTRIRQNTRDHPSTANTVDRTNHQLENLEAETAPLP
Compound,Ki (human MOR [1]) [µM],inhibition at 10 µM (human MOR [1]) [%],inhibition of the forskolin-stimulated cAMP production (human MOR [2]),stimulation of [35S]GTPγS binding (human MOR [3]),other results
Cc1c(NC(=O)c2ccc(Cl)cc2)cc(-c2ccccc2)n1CCCN1CCOCC1 [Compound 3],10.7,≥ 50,not effective,none of the three ligands produced any increase,–
COc1cc2c(cc1OC)C(C)N(Cc1cc(C)c(O)c(C)c1)CC2 (stereo not drawn) [Compound 4],1.11,≥ 50,not effective,none of the three ligands produced any increase,"effect on pain behavior when administered alone (chemical sensitivity) ([4]; alone, vs. vehicle): did not affect pain behavior; reversal of morphine analgesia in the writhing test ([4]; given 30 min prior to s.c. morphine): significant and dose-dependent reversal; rightward shift in the concentration-response for DAMGO (human MOR [2]; DAMGO inhibition of forskolin-stimulated cAMP accumulation): 3 fold; Kb (human MOR [2]; read-out: Ke): 8.03 ± 0.38 µM; blockade of morphine's analgesic effect against thermal-induced nociception ([5]; 20 mg/kg s.c. pretreatment, 30 min prior to s.c. morphine): complete blockade; effect on pain behavior when administered alone (thermal sensitivity) ([5]; s.c., alone, vs. vehicle): did not affect pain behavior; Kb (human MOR [3]; read-out: antagonist equilibrium constant (Ke)): 1020 ± 250 nM"
COc1ccc(S(=O)(=O)N2CCCN(c3c(Cl)cncc3Cl)CC2)cc1OC [Compound 5],7.01,≥ 50,not effective,none of the three ligands produced any increase,–
COc1ccc(CC2c3cc(OC)c(OC)cc3CCN2C)cc1OC (stereo not drawn) [Laudanosine],–,–,–,–,Ki (μ1 receptors): 2700 nM; antinociceptive effects (mouse tail-flick test): exert antinociceptive effects; Ki (μ2 receptors): 13 µM
COc1ccc(C[C@H]2c3cc(O)c(OC)cc3CCN2C)cc1O [reticuline],–,–,–,–,% of morphine effects (MOR): ca. 16%; binding to the μ3 opioid receptor subtype [6]: no binding
